Biological target: T1, Matrix-Metalloproteinase 9 (MMP9) (Homo sapiens, UniProt P14780)
T1 construct: 5 μl sample (active MMP9 at 2 μg/ml)
Test: Fluorogenic peptide cleavage assay with active MMP9 (kinetic fluorescence scan)
Assay type: biochemical
Settings: active MMP9 at 2 μg/ml, 5 μl of 0.2 mM peptide per well; excitation 328 nm, emission 400 nm; kinetic scan 30 min; FIG. 3
Procedure: 2 flurogenic peptides with 1 (PCL0174 A4) or 2 (PCL0174 B1) cleavable sequences respectively were investigated with sensitivity towards Matrix-Metalloproteinase 9 (MMP9).
96-well assay plate, black polystyrene, Costar®, Corning Inc. (Cat. #3925, lot #25011023)
MMP buffer, Aq. Solution of 50 mM Tris, 100 mM sodium chloride, 10 mM Calcium Chloride, 50 μM […] zinc chloride, 0.025% Brij 35, 0.05% sodium azide at pH 8.0.
Peptides PCL0174 A4 and PCL0174 B1 at a molar concentration of 8 mM
Testing Method • Peptides at a stock of 8 mM were diluted to 0.2 mM in MMP buffer • 2 μl+78 μl MMP buffer • 5 μl sample (active MMP9 at 2 μg/ml)+190 μl MMP buffer added to well • 5 μl of 0.2 mM peptide added per well • Read on a Fluorometer using the following settings: • Excitation wavelength: 328 nm, bandwidth 5 nm • Emission wavelength: 400 nm, bandwidth 5 nm • Kinetic scan: 30 min, interval 1 min

T1 sequence (P14780 107-707 limits assumed, species assumed): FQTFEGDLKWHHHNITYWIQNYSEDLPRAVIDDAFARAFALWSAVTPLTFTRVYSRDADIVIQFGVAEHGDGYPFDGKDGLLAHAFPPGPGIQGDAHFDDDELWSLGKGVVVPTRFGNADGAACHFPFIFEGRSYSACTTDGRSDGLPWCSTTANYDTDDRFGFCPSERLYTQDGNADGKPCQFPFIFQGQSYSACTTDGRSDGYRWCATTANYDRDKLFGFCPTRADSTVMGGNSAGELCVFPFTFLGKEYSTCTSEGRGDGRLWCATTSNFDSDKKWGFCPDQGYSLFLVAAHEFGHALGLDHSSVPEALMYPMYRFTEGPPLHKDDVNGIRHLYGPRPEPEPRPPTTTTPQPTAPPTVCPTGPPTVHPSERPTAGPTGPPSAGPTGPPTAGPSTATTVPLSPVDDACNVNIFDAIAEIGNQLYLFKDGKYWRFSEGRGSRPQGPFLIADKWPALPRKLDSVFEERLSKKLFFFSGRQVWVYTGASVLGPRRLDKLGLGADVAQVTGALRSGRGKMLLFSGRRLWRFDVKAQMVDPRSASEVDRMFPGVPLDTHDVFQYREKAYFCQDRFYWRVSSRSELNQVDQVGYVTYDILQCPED

Row | Substance | running time at which the same result (signal) is achieved [min]
1 | Lys(Mc Coumarin)-[GPQGIFGQ])-[GPQGIFGQ]-Lys(Dnp)G [2 CS] | 8
2 | Lys(Mc Coumarin)-[GPQGIFGQ]-Lys(Dnp)G [1 CS] | 30
